Results on 2 molecules are retold here after patent US8604004B2, “Moenomycin analogs, methods of synthesis, and uses thereof” (President and Fellows of Harvard College, priority 2007, dated 2013).

The target in series [1] is T1, S. aureus PBP2 (Staphylococcus aureus, UniProt Q9R744).
T1 construct: made in house
T1 sequence (Q9R744 1-727): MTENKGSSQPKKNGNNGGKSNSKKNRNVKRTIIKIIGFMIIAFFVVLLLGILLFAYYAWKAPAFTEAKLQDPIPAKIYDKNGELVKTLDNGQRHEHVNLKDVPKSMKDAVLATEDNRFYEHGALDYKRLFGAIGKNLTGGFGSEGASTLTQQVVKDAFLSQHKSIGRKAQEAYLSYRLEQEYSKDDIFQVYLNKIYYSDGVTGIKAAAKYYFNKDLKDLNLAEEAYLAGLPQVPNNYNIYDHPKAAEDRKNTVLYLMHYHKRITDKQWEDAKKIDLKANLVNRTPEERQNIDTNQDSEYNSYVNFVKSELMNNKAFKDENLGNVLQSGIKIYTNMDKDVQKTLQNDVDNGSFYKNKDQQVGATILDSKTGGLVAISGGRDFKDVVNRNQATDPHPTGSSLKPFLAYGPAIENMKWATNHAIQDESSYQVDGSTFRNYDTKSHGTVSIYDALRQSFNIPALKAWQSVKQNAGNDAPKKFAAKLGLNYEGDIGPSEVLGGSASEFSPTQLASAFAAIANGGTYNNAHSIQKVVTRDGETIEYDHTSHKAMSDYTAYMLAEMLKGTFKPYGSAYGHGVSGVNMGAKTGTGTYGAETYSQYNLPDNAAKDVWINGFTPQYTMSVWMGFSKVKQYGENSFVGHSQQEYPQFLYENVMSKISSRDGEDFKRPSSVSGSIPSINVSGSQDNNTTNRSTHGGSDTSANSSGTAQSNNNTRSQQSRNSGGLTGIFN
Description: IC50 for transglycosylase inhibition, S. aureus PBP2, [14C]-GlcNAc-labeled lipid II analogue. The series is classed as biochemical. As for the experimental part: S. aureus PBP2 was over-expressed and purified as described^4,5. The IC50s for moenomycin and neryl compounds were carried out using the following reaction condition: (0-50 μM) and PBP2 (final concentration 30 nM) were incubated in Eppendorf tubes containing 9 μL of buffer [(50 mM HEPES buffer, 50 mM MOPS, 50 mM MES, 50 mM AcOH) at pH 5.0, 10 mM CaCl2, 20% DMSO (v/v), 250 unit/mL penicillin G] for 30 min. The reaction was initiated by adding 4 μM [^14C]-GlcNAc-labeled lipid II analogue^4 (specific activity=101 cpm/pmol) and quenched after 80 min with 10 μL of ice-cold 10 mM Tris (pH=8.0) containing 0.2% Triton X-100. The reaction mixture was immediately spotted on cellulose chromatography paper (3MM Whatmann). Products and starting material were separated using chromatography (isobutryic acid:1 N NH4OH=5:3) and quantitated by scintillation counting. The data were fit using Prism, as described^3,4.

The conditions of series [2]: cited from earlier work.
Series [3] has as its system bacteria. The following applies: on a molar basis, cited from earlier work.
Series [4] has as its system E. faecalis, bacterial strain 29212. The series is described as follows: MIC, standard microdilution assay, E. faecalis. The series is classed as cell-based. The following applies: Enterococcus faecalis, no visible growth after 35° C. for 22 h, read-out: MIC (μg/ml) E. faecalis. The text has this: (§1) MIC values (μg/mL) were obtained using a standard microdilution assay.
(Broth dilution looks for growth in wells or tubes with falling amounts of substance.)

The subject of series [5] is S. aureus, bacterial strain 29213. Description: MIC, standard microdilution assay, S. aureus. Type of series: cell-based. The following applies: Staphylococcus aureus, no visible growth after 35° C. for 22 h, read-out: MIC (μg/ml) S. aureus.
Text: as §1

The target of series [6] is T2, E. faecalis PBP2a (Enterococcus faecalis, UniProt Q837Z4).
T2 sequence (Q837Z4 1-728): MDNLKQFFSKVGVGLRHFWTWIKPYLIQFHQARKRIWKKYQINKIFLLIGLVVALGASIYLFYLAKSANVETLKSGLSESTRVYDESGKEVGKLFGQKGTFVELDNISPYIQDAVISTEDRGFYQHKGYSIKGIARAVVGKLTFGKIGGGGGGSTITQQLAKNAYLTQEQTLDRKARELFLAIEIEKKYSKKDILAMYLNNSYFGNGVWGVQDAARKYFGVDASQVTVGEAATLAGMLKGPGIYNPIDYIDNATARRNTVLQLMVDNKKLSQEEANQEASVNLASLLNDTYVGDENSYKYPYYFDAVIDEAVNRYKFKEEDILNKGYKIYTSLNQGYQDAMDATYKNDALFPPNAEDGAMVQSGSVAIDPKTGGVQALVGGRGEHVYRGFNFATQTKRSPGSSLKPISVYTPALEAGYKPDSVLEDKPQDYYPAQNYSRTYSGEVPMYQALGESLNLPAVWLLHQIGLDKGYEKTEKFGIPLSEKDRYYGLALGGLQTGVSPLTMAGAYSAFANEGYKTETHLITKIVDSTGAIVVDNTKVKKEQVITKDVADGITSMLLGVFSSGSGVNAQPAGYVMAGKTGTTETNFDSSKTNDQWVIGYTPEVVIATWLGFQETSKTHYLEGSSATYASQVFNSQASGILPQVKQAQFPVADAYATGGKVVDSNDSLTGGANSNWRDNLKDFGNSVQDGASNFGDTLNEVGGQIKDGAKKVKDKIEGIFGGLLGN
Description: IC50 for transglycosylase inhibition, E. faecalis PBP2a, [14C]-GlcNAc-labeled lipid II analogue. The series is classed as biochemical. The text has this:
The pbp2a gene was PCR-amplified from E. faecalis (CL4877) purified genomic DNA using the following primer pair: 5′-[…] AATCTTAAACAATTTTTT-3′ (SEQ ID NO: 1) and 5′[…]-3′ (SEQ ID NO: 2). The first primer introduced a NdeI restriction site (underlined), and the second primer introduced a XhoI site into the PCR product. The PCR product was subcloned into pET42 (Novagen) for expression in E. coli BL21(DE3) (Novagen) as a C-terminal His8 fusion. PBP2a was expressed after induction of a log phase culture grown at 37° C. with 1 mM IPTG and grown at 15° C. for an additional 20 h. The cells were harvested by centrifugation, and the cell pellets were resuspended in buffer A (20 mM Tris-HCl, 150 mM NaCl, pH 7.4) supplemented with 360 kU of rLysozyme (Novagen). The cells were lysed using a French pressure cell at 16,000 psi in buffer A. Freely soluble proteins were decanted and the pellet resuspended in buffer A containing 0.5% Sarkosyl to release membrane-anchored PBP2a. […] Fractions were analyzed by 12% SDS-PAGE, pooled and concentrated using a Amicon Ultra Centrifuga Filter Device (50K MW cutoff). […]
IC50 Values for PBP2a. […] Products and starting material were separated using chromatography (isobutryic acid:1 N NH4OH=5:3) and quantitated by scintillation counting. […]

SMILES strings stand for the structures. In brackets after ≈: the same amount, converted by molar mass. Like-named read-outs stand apart in the source and are kept apart here.

`C=C(C/C=C(\C)CCC=C(C)C)CCC(C)(C)/C=C/CC/C(C)=C\CO[C@H](COP(=O)(O)O[C@H]1OC(C(N)=O)[C@@](C)(O)[C@H](OC(N)=O)C1O[C@@H]1OC(CO[C@@H]2OC(CO)[C@@H](O)[C@H](O)C2O)[C@@H](O[C@@H]2OC(C)[C@@H](O[C@@H]3OC(C(=O)NC4=C(O)CCC4=O)[C@H](O)[C@H](O)C3O)[C@H](O)C2NC(C)=O)[C@H](O)C1NC(C)=O)C(=O)O` (stereo partly drawn) [compound 1, Moenomycin A]: the results for the IC50 in series [1] and in series [6] were 0.0221 µM and 0.0265 µM, respectively. The “absorption upon oral administration” value in series [2] (oral) is “relatively poor”. Also, in series [2] (related to the lipid side chain), the pharmacokinetic properties entry is given as “poor pharmacokinetic properties”. Besides, the “potency relative to vancomycin” value is recorded as “a thousand times more potent than the antibiotic vancomycin” in series [3] (listed as Moenomycin A) and “a thousand times more potent than vancomycin” in series [3] (listed as moenomycin A). Besides, the MIC in series [4] was 0.063 µg/mL (≈ 0.0398 µM); in series [5] it was 0.016 µg/mL (≈ 0.0101 µM).
`CC(=O)NC1[C@H](O[C@@H]2C(CO[C@@H]3OC(CO)[C@@H](O)[C@H](O)C3O)O[C@@H](OC3[C@@H](OP(=O)(O)OC[C@@H](OC/C=C(/C)CCC=C(C)C)C(=O)O)OC(C(N)=O)[C@@](C)(O)[C@@H]3OC(N)=O)C(NC(C)=O)[C@H]2O)OC(C)[C@@H](O[C@@H]2OC(C(=O)NC3=C(O)CCC3=O)[C@H](O)[C@H](O)C2O)[C@@H]1O` (stereo partly drawn) [compound 15]: the IC50 is 0.0414 µM in series [1] and 0.016 µM in series [6] (PBP2a 52 nM, pH 7.5, 4 μM lipid II analogue, read-out: IC50 (μg/ml) E. faecalis PBP2a (converted)). The MIC in series [4] and in series [5] was above 250 µg/mL throughout.
